Experimental data taken from patent US20250169496A1, “USE OF 2-AMINO-3-HYDROXY-3-METHYLBUTYRIC ACID AND/OR 2-AMINO-3-(4-HYDROXYPHENYL) BUTYRIC ACID” (NANJING TIANNONG BIOTECHNOLOGY CO., LTD., priority 2021, published 2025).

Tests used:
[1] = system: tomato spotted wilt virus (TSWV); experiment: Induced resistance of tobacco to infection of tomato spotted wilt virus; format: in vivo, Nicotiana benthamiana; conditions: for Viral protein content: tobacco leaves 3 d after inoculation, Western blot grayscale, relative
Protocol: Obtain the tomato spotted wilt virus from Yunnan Province, China, store the initial virus source in a −80° C. refrigerator, activate the virus by inoculating it by friction inoculation on Nicotiana benthamiana leaves, extract viral plasmids, transform them by Escherichia coli competent cells, spread them onto a resistant plate for culture, pick a single colony for PCR screening, select positive colonies for sequencing and subsequent plasmid extraction, add the plasmids with normal sequencing to agrobacterium competent cells, transform the agrobacterium by the electric shock method, spread the transformed agrobacterium solution on the corresponding resistance screening plate, and culture it at 28° C.(±1) for 48 h. Pick a single agrobacterium colony on the transformation plate, place it in 5 mL of LB medium with the corresponding resistance and culture it at 28° C. and 180 rpm overnight. Centrifuge at 6,000 rpm for 2 min, collect the bacteria, suspend the bacteria with a treatment buffer (10 mM MgCl2, 10 mM MES, 10 μM Acetosyringone) until the OD600 of the suspension is 0.5, treat it at 28° C. in a dark place for 3 h and keep it for future use.
Take 2-amino-3-hydroxy-3-methylbutyric acid, dissolve it with distilled water, then dilute the solution with distilled water by gradient into 0 nM, 0.1 nM, 1 nM and 10 nM solutions. Sow Nicotiana benthamiana seeds in a small pot, and culture them at 24(±1)° C., 12 h/12 h illumination for 5 weeks. Select healthy tobacco plants (plants with 8-10 leaves are appropriate), spray 2-amino-3-hydroxy-3-methylbutyric acid solutions at the above concentrations on leaves and stems twice at an interval of 24 h. After 24 hours, suck an agrobacterium solution at a uniform concentration with a 1 mL syringe, press the injection port of the syringe directly on a small hole on the back of a tobacco leaf, and slowly push the bacterial solution into the hole so that the whole leaf is soaked. Culture the soaked tobacco at 24(±1)° C. 12 h/12 h illumination. Observe under a microscope after 3 d and make record; meanwhile, take a sample, analyze the grayscale of protein bands by using Western blot and Image J software, and determine the relative protein content of virus in leaves. Observe the morbidity of the tobacco leaves after 15 days, record the disease index with reference to GB/T 23222-2008 Grade and Investigation Method of Tobacco Diseases and Insect Pests. The formula is as follows: […]
Grading standard of tomato spotted wilt viruses (grading survey with plant as a unit): • Level 0: No disease in the whole plant; • Level 1: The shoot and leaf veins are clear or the leaves are slightly mottled, and the diseased plant is not dwarfed obviously; • Level 3: One third of the leaves are mottled, but the leaves are not deformed, or the plant is dwarfed to more than three quarters of the normal plant height; • Level 5: One third to a half of the leaves are mottled, or a minority of leaves are deformed, or the main veins turn black, or the plant is dwarfed to two thirds to three quarters of the normal plant height; • Level 7: A half to two thirds of the leaves are mottled, or deformed or a minority of major lateral veins are dead, or the plant is dwarfed to a half to two thirds of the normal plant height; • Level 9: The leaves of the whole plant are mottled, or seriously deformed or dead, or the diseased plant is dwarfed to […] of the normal plant height.

[2] = system: Pseudomonas syringae PstDC3000; experiment: Induced resistance of Arabidopsis to infection of Pseudomonas syringae; format: in vivo; conditions: for Disease index: Arabidopsis 3 d after PstDC3000 inoculation; for CFU/mg (number of bacteria per mg of leaves): Arabidopsis leaves 3 d after PstDC3000 inoculation; for Decrease of disease index / Decrease of number of bacteria per mg of leaves: compared to blank control
Protocol: Take 2-amino-3-hydroxy-3-methylbutyric acid, dissolve it in sterile water, dilute the solution with sterile water by gradient into 100 nM, 1,000 nM and 10,000 nM solutions, set a blank control, and meanwhile add 0.02% Tween 20 as a surfactant. Spread Pseudomonas syringaePstDC3000 on an LB plate, and culture it at 28° C. for 48h; pick a monoclonal colony, inoculate it in a 50 mL centrifuge tube containing 2 mL of medium, culture it on a shaker at 28° C., 250 rpm, monitor changes of OD600 of the bacterial solution once every 1-2 h, and stop bacteria culturing before OD600 reaches 0.8; transfer 1 mL of the bacterial solution to a sterile 1.5 mL centrifuge tube, centrifuge it at 8000 rpm for 2 min, and collect the precipitate; remove the supernatant, wash the precipitate with 10 mM magnesium chloride for three times and centrifuge, lastly re-suspend PstDC3000 in the 10 mM magnesium chloride until its OD600 reaches 0.001, and keep it for future use. Soake Arabidopsis seeds in 75% alcohol for 3 min, then wash them with sterile water for 4 times, inoculate it in culture dishes filled with ½ MS medium, 12 seeds per dish, vernalize the ½ MS culture dishes containing seeds at 4° C. for 3 d to break dormancy, then put them in a 22° C. culture room with luminous intensity of 100μE m^−2s-^1(16 hillumination/8 h darkness), slowly pour the above 2-amino-3-hydroxy-3-methylbutyric acid at different concentrations into the culture dishes until the entire Arabidopsis seedlings are submerged after the seedlings have grown for 2 weeks, maintain this state for 2-3 minutes, and then pour the treatment solution out of the culture dishes, treat it once every 24 h, twice in total, inoculate PstDC3000 suspension (OD600=0.01) to Arabidopsis leaves by the same submerging method 24 h after the second treatment, seal the culture dishes with medical breathable adhesive after the inoculation, put them in the culture room for continued culturing. 3 d after, determine the number of bacteria after different treatments, observe the morbidity of Arabidopsis, and calculate the disease index by the method same as the disease index calculation formula in Embodiment 2.
Grading standard of diseases caused by PstDC3000(with leaf as a unit): • Level 0: No disease spot on the leaf surface; • Level 1: The area of the disease spots accounts for 0%-10% of the whole leaf area; • Level 2: The area of the disease spots accounts for 10%-25% of the whole leaf area; • Level 3: The area of the disease spots accounts for 25%-50% of the whole leaf area; • Level 4: The area of the disease spots accounts for 50%-75% of the whole leaf area; • Level 5: The area of the disease spots accounts for […] of the whole leaf area.

[3] = 0.1 nM sprayed twice, tobacco 15 days after TSWV inoculation
[4] = 1 nM sprayed twice, tobacco 15 days after TSWV inoculation
[5] = concentration range 0.1-10 nM, tobacco, TSWV

SMILES	Disease index [1, 3] [b]	Viral protein content ([1]; 0.1 nM) [b]	Relative immune effect ([1]; 0.1 nM, tobacco, TSWV) [%]	Disease index [1, 4] [c]	Viral protein content ([1]; 1 nM) [c]	Relative immune effect ([1]; 1 nM, tobacco, TSWV) [%]	Relative immune effect ([1]; 10 nM, tobacco, TSWV) [%]	Disease index [1, 5]	Relative immune effect [1, 5]	Disease index ([2]; 100 nM) [b]	CFU/mg (number of bacteria per mg of leaves) ([2]; 100 nM)	Decrease of disease index ([2]; 100 nM) [%]	Decrease of number of bacteria per mg of leaves ([2]; 100 nM) [%]	Disease index ([2]; 1,000 nM)	CFU/mg (number of bacteria per mg of leaves) ([2]; 1,000 nM)	Decrease of disease index ([2]; 1,000 nM) [%]	Decrease of number of bacteria per mg of leaves ([2]; 1,000 nM) [%]	Decrease of disease index ([2]; 10,000 nM) [%]	Decrease of number of bacteria per mg of leaves ([2]; 10,000 nM) [%]	CFU/mg (number of bacteria per mg of leaves) ([2]; 10,000 nM)
CC(c1ccc(O)cc1)C(N)C(=O)O (stereo not drawn) [2-amino-3-(4-hydroxyphenyl) butyric acid]	36.62 ± 0.87	0.34 ± 0.004	52.54	29.83 ± 2.31	0.28 ± 0.012	61.34	67.24	lower than 50	more than 50%	40.06 ± 0.98	4.43 × 10^5 CFU/mg	51.11	86.20	36.81 ± 0.28 c	3.04 × 10^5 CFU/mg	55.07	90.53	66.84	91.37	
CC(C)(O)C(N)C(=O)O (stereo not drawn) [2-amino-3-hydroxy-3-methylbutyric acid]	58.64 ± 2.31	0.41 ± 0.029	34.48	40.74 ± 3.02	0.30 ± 0.012	54.48	67.59	lower than 60	more than 30%	40.90 ± 2.41	9.46 × 10^5 CFU/mg	43.22	70.34	38.90 ± 1.96 b	7.11 × 10^5 CFU/mg	45.60	77.71	58.07	88.06	3.81×10^5 CFU/mg
